Legend:
[1] = test system: beta-adrenergic receptors; experiment: beta-adrenergic blocking action and its selectivity (cardiac, vascular smooth muscle, metabolic effects); format: in vivo; details: for relative specificity of beta-adrenergic antagonism, peripheral vasculature versus heart: effects of beta-adrenergic agonists; for level of activity: in vivo

Row | level of activity [1] | Structure (SMILES) | relative specificity of beta-adrenergic antagonism, peripheral vasculature versus heart [1] | selectivity of beta-adrenergic blocking action, cardiac and smooth muscle versus metabolic effects ([1]; versus anti-hyperglycemia and anti-hyperlactacidemia) | anti-arrhythmic activity (anti-arrhythmic activity) | anti-arrhythmic potency relative to procainamide (anti-arrhythmic activity; versus procainamide) | anti-arrhythmic potency relative to quinidine (anti-arrhythmic activity; versus quinidine)
1 | high level of activity | CC(C)NCC(O)c1ccc(NS(=O)(=O)N(C)C)cc1 (centres unmarked) [N,N-dimethyl-N'-[4-(1-hydroxy-2-isopropylaminoethyl)phenyl]sulfamide] | relative specificity for antagonism of the effects of beta-adrenergic agonists on the peripheral vasculature | relatively selective for cardiac and smooth muscle as opposed to the metabolic effects of anti-hyperglycemia and anti-hyperlactacidemia | potent anti-arrhythmic agent | 2.6 times | 1.3 times
2 | high level of activity | CC(C)NCC(O)c1ccc(NS(N)(=O)=O)cc1 (centres unmarked) [N-[4-(1-hydroxy-2-isopropylaminoethyl)phenyl]sulfamide] | relatively stronger antagonist of the direct cardiac stimulatory effects evoked by beta-adrenergic agonists than of the peripheral vascular smooth muscle | – | – | – | –
